“Also recorded” adds a separate entry of the source. Where two headings read alike, the source gives them in different places. Blank lines part the entries; values can stand above or below the compound they belong to.
What was measured:
[1] = test system: FLJXXXXX-derived proteins; assay: SEC/MS spin column interaction analysis of FLJXXXXX-derived proteins and various compounds (Tables 30-1 to 30-4); type: binding, human; settings: SEC spin column filtrate, spectral intensity increased with doses of compound and protein
[2] = target: FLJ40298-derived protein (Homo sapiens, UniProt Q8N5S3, P254L/R275T); assay: SEC/MS interaction analysis, FLJ40298-derived protein (hypothetical protein FLJ40298); type: binding
Source text: (§1) To analyze the interactions between commonly used drugs and proteins expressed from human full-length cDNA clones while keeping both the proteins and the compounds in non-modified, non-immobilized state, size exclusion chromatography (SEC) and mass analysis were used in combination. The specific procedures are shown below.
(§2) The compound-protein mixture prepared in step 1 was subjected to chromatography using an SEC column, the compound and the protein were separated by SEC, and the compound that interacted with the bound compound or protein contained in the protein fraction was analyzed using a mass analyzer.
(§3) Protein concentrations were measured using BCA Protein Assay (PIERCE), in consideration of the purity calculated by SDS-PAGE.
(§4) Mass analysis was performed using LCQ DECA XP (Thermoelectron) or Q-TOF micro (Micromass), equipped with an ESI probe. The LC pump used was Agilent 1100 (Yokogawa Analytical Systems), and the autosampler used was HTC-PAL (CTC Analytics) equipped with a cooling stacker. The SEC column used was a micro-LC column or a 384-well spin column. […]
(§5) In the 384-well spin column method, Unifilter 100 (Whatman), packed with 10 μL (dry volume) of Bio-Gel P6 (BIO-RAD) and swollen with milliQ water, was used as the SEC column. […] The SEC spin column was mounted on an acetonitrile-aliquoted 384-well U-bottom plate and centrifuged; the SEC spin column filtrate, which is a protein fraction, was recovered in 50% acetonitrile. The protein precipitate produced by the acetonitrile was removed via centrifugation and filtration for deproteinization; the resulting filtrate was concentrated by centrifugal concentration and re-dissolved in 10 μL of 50% methanol to obtain a mass analysis sample. The mobile phase supplied to the mass analyzer was 0.1% formic acid/50% methanol solution in the positive ion mode, and 0.1% ammonia/50% methanol solution in the negative ion mode; these mobile phases were used at a flow rate of 40 μL/min. 2-μL of mass analysis samples were injected using an autosampler at 2-minute intervals; the mass spectral intensity of the compound was measured to retrieve the spectral intensity of the pharmaceutical compound contained in the SEC spin column filtrate (protein fraction eluted from SEC).

[3] = test system: FLJ20972-derived protein
Source text: as §1, §2, §3
Mass analysis was performed using LCQ DECA XP (Thermoelectron) or Q-TOF micro (Micromass), equipped with an ESI probe. The LC pump used was Agilent 1100 (Yokogawa Analytical Systems), and the autosampler used was HTC-PAL (CTC Analytics) equipped with a cooling stacker. The SEC column used was a micro-LC column or a 384-well spin column.
The SEC column used for the micro-LC method was a TSKgel super SW2000 (TOSOH) cartridge column (1.0 mm ID×10 mm) or a TSKgel super SW2000 (TOSOH) column (1.0 mm ID×30 mm), with 10 mM ammonium acetate aqueous solution serving as the mobile phase. A conditioning solvent (0.5% formic acid/methanol solution in the positive ion mode, 0.5% ammonia/methanol solution in the negative ion mode) was mixed downstream of the SEC column via a Tee connector; the column was connected to the ESI of the mass analyzer. The flow rate was set at 40 μL/min for the SEC column side, and 10 μL/min for the conditioning solvent side.
Specifically, if the protein and the compound interact with each other, the acceleration of the elution of the compound molecules that are bound to the protein when the protein is overtaking the compound in the SEC column occurs, resulting in a change in the mass chromatogram of the compound depending on the presence or absence of the protein.
as §5

[4] = test system: FLJ41550-derived protein; assay: SEC/MS interaction analysis, FLJ41550-derived protein (SAMHD1); type: binding, human
Source text: as §1, §2, §3, §4, §5

[5] = compound 12.5 μM, protein 10 μM
[6] = compound 12.5 μM, protein 25 μM
[7] = compound 62.5 μM, protein 10 μM
[8] = compound 62.5 μM, protein 25 μM
[9] = spin column method, doses of both compound and protein varied

Chain of FLJ40298-derived protein (Q8N5S3 122-287 P254L/R275T): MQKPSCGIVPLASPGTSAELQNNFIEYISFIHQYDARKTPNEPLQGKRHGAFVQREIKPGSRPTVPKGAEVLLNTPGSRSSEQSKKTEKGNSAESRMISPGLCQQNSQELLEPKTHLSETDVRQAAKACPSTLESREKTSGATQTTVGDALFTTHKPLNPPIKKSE

- spectrum intensity of the compound in the SEC spin column filtrate ([2]; compound 12.5 μM, protein 0 μM): 202235
- spectrum intensity of the compound in the SEC spin column filtrate ([2]; compound 12.5 μM, protein 5 μM): 285949
- spectrum intensity of the compound in the SEC spin column filtrate [2, 5]: 263958
- spectrum intensity of the compound in the SEC spin column filtrate [2, 6]: 299357
- spectrum intensity of the compound in the SEC spin column filtrate ([2]; compound 25 μM, protein 0 μM): 557220
- spectrum intensity of the compound in the SEC spin column filtrate ([2]; compound 25 μM, protein 5 μM): 1519215
- spectrum intensity of the compound in the SEC spin column filtrate ([2]; compound 25 μM, protein 10 μM): 552560
- spectrum intensity of the compound in the SEC spin column filtrate ([2]; compound 25 μM, protein 25 μM): 583103
- spectrum intensity of the compound in the SEC spin column filtrate ([2]; compound 62.5 μM, protein 0 μM): 815144
- spectrum intensity of the compound in the SEC spin column filtrate ([2]; compound 62.5 μM, protein 5 μM): 225597
- spectrum intensity of the compound in the SEC spin column filtrate [2, 7]: 1509221
- spectrum intensity of the compound in the SEC spin column filtrate [2, 8]: 2027848
- interaction judged from spectrum intensity of the compound in the SEC spin column filtrate (protein fraction eluted from SEC) [2, 9]: concentration-dependent interaction
Structure (SMILES): CCCCOc1cc(C(=O)OCCN(CC)CC)ccc1N [benoxinate]
- FLJ No of the derived protein with which the compound was judged to exhibit a concentration-dependent interaction [1]: FLJ40298

Structure (SMILES): CNCCCC1c2ccccc2C=Cc2ccccc21 [protriptyline]
- spectrum intensity of the compound in the SEC spin column filtrate ([3]; compound 12.5 μM, protein 0 μM): 39179
- spectrum intensity of the compound in the SEC spin column filtrate ([3]; compound 12.5 μM, protein 5 μM): 27260
- spectrum intensity of the compound in the SEC spin column filtrate [3, 5]: 39545
- spectrum intensity of the compound in the SEC spin column filtrate [3, 6]: 44522
- spectrum intensity of the compound in the SEC spin column filtrate ([3]; compound 25 μM, protein 0 μM): 53214
- spectrum intensity of the compound in the SEC spin column filtrate ([3]; compound 25 μM, protein 5 μM): 76771
- spectrum intensity of the compound in the SEC spin column filtrate ([3]; compound 25 μM, protein 10 μM): 105694
- spectrum intensity of the compound in the SEC spin column filtrate ([3]; compound 25 μM, protein 25 μM): 132099
- spectrum intensity of the compound in the SEC spin column filtrate ([3]; compound 62.5 μM, protein 0 μM): 239324
- spectrum intensity of the compound in the SEC spin column filtrate [3, 7]: 390017
- spectrum intensity of the compound in the SEC spin column filtrate [3, 8]: 754873
- interaction judged from spectrum intensity of the compound in the SEC spin column filtrate (protein fraction eluted from SEC) [3, 9]: concentration-dependent interaction

Structure (SMILES): CN1CCN(CCCN2c3ccccc3Sc3ccc(S(=O)(=O)N(C)C)cc32)CC1 [thioproperasine, thioproperazine]
- FLJ No of the derived protein with which the compound was judged to exhibit a concentration-dependent interaction [1]: FLJ37909; also recorded: FLJ41550
- spectrum intensity of the compound in the SEC spin column filtrate ([4]; compound 12.5 μM, protein 0 μM): 252410
- spectrum intensity of the compound in the SEC spin column filtrate ([4]; compound 12.5 μM, protein 5 μM): 377673
- spectrum intensity of the compound in the SEC spin column filtrate [4, 5]: 478699
- spectrum intensity of the compound in the SEC spin column filtrate [4, 6]: 941513
- spectrum intensity of the compound in the SEC spin column filtrate ([4]; compound 25 μM, protein 0 μM): 262646
- spectrum intensity of the compound in the SEC spin column filtrate ([4]; compound 25 μM, protein 5 μM): 778927
- spectrum intensity of the compound in the SEC spin column filtrate ([4]; compound 25 μM, protein 10 μM): 1198533
- spectrum intensity of the compound in the SEC spin column filtrate ([4]; compound 25 μM, protein 25 μM): 983016
- spectrum intensity of the compound in the SEC spin column filtrate ([4]; compound 62.5 μM, protein 0 μM): 1132948
- spectrum intensity of the compound in the SEC spin column filtrate ([4]; compound 62.5 μM, protein 5 μM): 1457362
- spectrum intensity of the compound in the SEC spin column filtrate [4, 7]: 2445959
- spectrum intensity of the compound in the SEC spin column filtrate [4, 8]: 2997892
- interaction judged from spectrum intensity of the compound in the SEC spin column filtrate (protein fraction eluted from SEC) [4, 9]: concentration-dependent interaction
